{"source": "ChEMBL document CHEMBL4613325", "about": "“Design of Development Candidate eFT226, a First in Class Inhibitor of Eukaryotic Initiation Factor 4A RNA Helicase” (J Med Chem, 2020)", "key": {"MDA-MB-231 [1]": {"test_system": "MDA-MB-231", "experiment": "Antiproliferative activity against human MDA-MB-231 cells assessed as reduction in cell proliferation incubated for 72 hrs by CellTiter-Glo reagent based assay", "assay_type": "functional", "conditions": "MDA-MB-231, 72 h"}, "[2]": {"experiment": "Apparent permeability from apical to basolateral side in human Caco2 cells at 10 uM by LC/MS/MS analysis", "conditions": "Caco-2"}, "[3]": {"target": "Voltage-gated inwardly rectifying potassium channel KCNH2 (Homo sapiens, UniProt Q12809)", "sequence (Q12809 whole entry)": "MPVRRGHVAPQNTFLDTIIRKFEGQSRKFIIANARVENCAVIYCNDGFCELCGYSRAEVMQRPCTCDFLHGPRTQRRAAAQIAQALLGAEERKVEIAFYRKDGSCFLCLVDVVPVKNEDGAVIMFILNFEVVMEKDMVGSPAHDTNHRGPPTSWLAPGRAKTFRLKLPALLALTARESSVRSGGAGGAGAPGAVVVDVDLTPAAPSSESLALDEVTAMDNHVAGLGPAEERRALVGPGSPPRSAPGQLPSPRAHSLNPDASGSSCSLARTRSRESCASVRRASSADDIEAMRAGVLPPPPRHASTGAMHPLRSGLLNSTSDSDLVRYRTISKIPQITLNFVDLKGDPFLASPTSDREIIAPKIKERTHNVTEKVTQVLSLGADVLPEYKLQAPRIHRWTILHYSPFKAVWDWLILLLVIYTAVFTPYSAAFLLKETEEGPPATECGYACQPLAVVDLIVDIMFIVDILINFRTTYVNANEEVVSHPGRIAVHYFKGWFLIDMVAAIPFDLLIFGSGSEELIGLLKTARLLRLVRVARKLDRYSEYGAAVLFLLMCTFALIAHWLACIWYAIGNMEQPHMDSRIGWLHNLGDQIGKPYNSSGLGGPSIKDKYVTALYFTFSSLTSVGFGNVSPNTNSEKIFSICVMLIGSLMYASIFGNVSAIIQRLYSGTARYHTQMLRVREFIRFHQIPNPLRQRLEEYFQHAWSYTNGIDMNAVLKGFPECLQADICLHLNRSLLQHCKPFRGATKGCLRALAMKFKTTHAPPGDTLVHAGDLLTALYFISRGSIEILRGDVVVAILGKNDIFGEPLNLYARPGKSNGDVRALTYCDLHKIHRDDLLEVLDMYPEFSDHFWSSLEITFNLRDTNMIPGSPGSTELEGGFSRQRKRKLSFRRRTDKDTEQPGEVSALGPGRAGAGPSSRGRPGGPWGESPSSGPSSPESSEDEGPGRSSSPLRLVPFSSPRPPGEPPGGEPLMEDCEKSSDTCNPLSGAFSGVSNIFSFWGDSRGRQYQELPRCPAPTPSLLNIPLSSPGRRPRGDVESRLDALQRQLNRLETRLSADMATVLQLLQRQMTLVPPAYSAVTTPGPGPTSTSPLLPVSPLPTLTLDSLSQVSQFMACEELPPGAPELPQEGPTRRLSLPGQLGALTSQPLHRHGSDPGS", "experiment": "Inhibition of human ERG by patch-clamp assay"}, "[4]": {"experiment": "Clearance in iv dosed rat", "assay_type": "ADME, organism-based", "conditions": "in vivo"}, "[5]": {"experiment": "Volume of distribution at steady state in iv dosed rat", "assay_type": "ADME, organism-based", "conditions": "in vivo, read-out: Vdss"}, "[6]": {"experiment": "Half life in iv dosed rat", "assay_type": "ADME, organism-based", "conditions": "in vivo"}, "[7]": {"experiment": "AUC in iv dosed rat", "assay_type": "ADME, organism-based", "conditions": "in vivo"}, "[8]": {"target": "T1, Eukaryotic initiation factor 4A-I (Homo sapiens, UniProt P60842)", "T1 sequence (P60842 whole entry)": "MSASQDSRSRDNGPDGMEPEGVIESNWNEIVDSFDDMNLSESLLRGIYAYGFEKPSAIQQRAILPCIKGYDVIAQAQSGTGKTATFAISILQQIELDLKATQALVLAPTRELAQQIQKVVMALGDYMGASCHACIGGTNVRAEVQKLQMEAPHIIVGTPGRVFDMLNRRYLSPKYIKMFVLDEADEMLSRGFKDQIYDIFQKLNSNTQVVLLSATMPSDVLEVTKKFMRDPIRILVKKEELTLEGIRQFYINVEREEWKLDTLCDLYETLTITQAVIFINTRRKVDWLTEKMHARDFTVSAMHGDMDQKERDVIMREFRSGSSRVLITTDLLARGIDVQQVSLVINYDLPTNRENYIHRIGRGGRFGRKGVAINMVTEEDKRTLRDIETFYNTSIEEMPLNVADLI", "experiment": "Inhibition of eIF4A1 in human MDA-MB-231 cells assessed as inhibition of cellular-translation incubated for 4 hrs by specific tandem sequence motif repeat AGAGAG in 5'- UTR containing luciferase reporter gene assay", "assay_type": "cell-based"}, "[9]": {"target": "T1, Eukaryotic initiation factor 4A-I", "experiment": "Inhibition of eIF4A1 in human MDA-MB-231 cells assessed as inhibition of cellular-translation incubated for 4 hrs by specific tandem sequence motif repeat GGCGGC in 5'- UTR containing luciferase reporter gene assay", "assay_type": "cell-based"}, "[10]": {"target": "T1, Eukaryotic initiation factor 4A-I", "experiment": "Inhibition of eIF4A1 in human MDA-MB-231 cells assessed as inhibition of cellular-translation incubated for 4 hrs by specific tandem sequence motif repeat CCGCCG in 5'- UTR containing luciferase reporter gene assay", "assay_type": "cell-based"}, "[11]": {"target": "T1, Eukaryotic initiation factor 4A-I", "experiment": "Inhibition of eIF4A1 in human MDA-MB-231 cells assessed as inhibition of cellular-translation incubated for 4 hrs by specific tandem sequence motif repeat CAACAA in 5'- UTR containing luciferase reporter gene assay", "assay_type": "cell-based"}, "[12]": {"experiment": "Inhibition of eIF4A1 F163L mutant in human HAP1 cells assessed as reduction in cell proliferation incubated for 72 hrs by CellTiter-Glo reagent based assay", "conditions": "HAP1, 72 h"}, "MDA-MB-231 [13]": {"test_system": "MDA-MB-231", "experiment": "Effect on GADPH protein expression in human MDA-MB-231 cells 10 to 100 nM incubated for 24 hrs by Western blot analysis", "assay_type": "ADME, cell-based", "conditions": "mda-mb-231, 24 h"}, "MDA-MB-231 [14]": {"test_system": "MDA-MB-231", "experiment": "Antitumor activity against human MDA-MB-231 cells xenografted in athymic nude ((NCr) nu/nu mouse assessed as inhibition of tumor growth at 1 mg/kg, iv treated once weekly for 2 weeks relative to control", "assay_type": "functional", "conditions": "MDA-MB-231, iv, 336 h"}, "[15]": {"experiment": "Toxicity in athymic nude ((NCr) nu/nu mouse xenografted with human MDA-MB-231 cells assessed as induction of body weight loss at 1 mg/kg, iv treated once weekly for 2 weeks relative to control", "assay_type": "organism-based", "conditions": "in vivo, 336 h"}, "[16]": {"experiment": "Half life in mouse at 1 mg, iv administered as single dose measured after 0.083 to 24 hrs by LC-MS analysis", "assay_type": "ADME, organism-based", "conditions": "in vivo"}, "[17]": {"experiment": "Half life in Sprague-Dawley rat at 1 mg, iv administered as single dose measured after 0.083 to 24 hrs by LC-MS analysis", "assay_type": "ADME, organism-based", "conditions": "in vivo"}, "[18]": {"experiment": "Half life in monkey at 1 mg, iv administered as single dose measured after 0.083 to 24 hrs by LC-MS analysis", "assay_type": "ADME, organism-based, Macaca mulatta", "conditions": "rhesus monkey, in vivo"}, "[19]": {"experiment": "Clearance in mouse at 1 mg, iv administered as single dose measured after 0.083 to 24 hrs by LC-MS analysis", "assay_type": "ADME, organism-based", "conditions": "in vivo"}, "[20]": {"experiment": "Clearance in Sprague-Dawley rat at 1 mg, iv administered as single dose measured after 0.083 to 24 hrs by LC-MS analysis", "assay_type": "ADME, organism-based", "conditions": "in vivo"}, "[21]": {"experiment": "Clearance in dog at 1 mg, iv administered as single dose measured after 0.083 to 24 hrs by LC-MS analysis", "assay_type": "ADME, organism-based, Canis lupus familiaris", "conditions": "in vivo"}, "[22]": {"experiment": "Clearance in monkey at 1 mg, iv administered as single dose measured after 0.083 to 24 hrs by LC-MS analysis", "assay_type": "ADME, organism-based, Macaca mulatta", "conditions": "rhesus monkey, in vivo"}, "[23]": {"experiment": "Volume of distribution at steady state in mouse at 1 mg, iv administered as single dose measured after 0.083 to 24 hrs by LC-MS analysis", "assay_type": "ADME, organism-based", "conditions": "in vivo, read-out: Vdss"}, "[24]": {"experiment": "Volume of distribution at steady state in Sprague-Dawley rat at 1 mg, iv administered as single dose measured after 0.083 to 24 hrs by LC-MS analysis", "assay_type": "ADME, organism-based", "conditions": "in vivo, read-out: Vdss"}, "[25]": {"experiment": "Volume of distribution at steady state in dog at 1 mg, iv administered as single dose measured after 0.083 to 24 hrs by LC-MS analysis", "assay_type": "ADME, organism-based, Canis lupus familiaris", "conditions": "in vivo, read-out: Vdss"}, "[26]": {"experiment": "Volume of distribution at steady state in monkey at 1 mg, iv administered as single dose measured after 0.083 to 24 hrs by LC-MS analysis", "assay_type": "ADME, organism-based, Macaca mulatta", "conditions": "rhesus monkey, in vivo, read-out: Vdss"}, "[27]": {"experiment": "Protein binding in mouse plasma", "assay_type": "ADME, cell-free", "conditions": "read-out: PPB (converted)"}, "[28]": {"experiment": "Protein binding in rat plasma", "assay_type": "ADME, cell-free", "conditions": "read-out: PPB (converted)"}, "[29]": {"experiment": "Protein binding in dog plasma", "assay_type": "ADME, cell-free, Canis lupus familiaris", "conditions": "read-out: PPB (converted)"}, "[30]": {"experiment": "Protein binding in monkey plasma", "assay_type": "ADME, cell-free, Macaca mulatta", "conditions": "rhesus monkey, read-out: PPB (converted)"}, "[31]": {"experiment": "Protein binding in human plasma", "assay_type": "ADME, cell-free", "conditions": "read-out: PPB (converted)"}}}
{"compound": "COc1cc2c(c(OC)n1)[C@]1(O)[C@H](O)[C@H](CN(C)C)[C@@H](c3ccccc3)[C@]1(c1ccc(C#N)cc1)O2", "note": "[ZOTATIFIN]", "values": [{"measurement": "IC50", "setting": "MDA-MB-231 [1]", "value": 10.6, "unit": "nM"}, {"measurement": "Papp A→B at 10 µM", "setting": "[2]", "value": 2.5, "unit": "×10⁻⁶ cm/s"}, {"measurement": "IC50", "setting": "[3]", "value": "> 10000", "unit": "nM"}, {"measurement": "clearance", "setting": "[4]", "value": 48, "unit": "mL/min/kg"}, {"measurement": "Vd", "setting": "[5]", "value": 13, "unit": "L/kg"}, {"measurement": "half-life", "setting": "[6]", "value": 4.4, "unit": "h"}, {"measurement": "AUC", "setting": "[7]", "value": 390, "unit": "ng·h/mL"}, {"measurement": "IC50", "setting": "[8]", "value": 1.5, "unit": "nM"}, {"measurement": "IC50", "setting": "[9]", "value": 13.8, "unit": "nM"}, {"measurement": "IC50", "setting": "[10]", "value": 92, "unit": "nM"}, {"measurement": "IC50", "setting": "[11]", "value": 218, "unit": "nM"}, {"measurement": "IC50", "setting": "[12]", "value": 371, "unit": "nM"}, {"measurement": "Activity", "setting": "MDA-MB-231 [13]", "value": "Non-Toxic"}, {"measurement": "inhibition in vivo at 1 mg/kg", "setting": "MDA-MB-231 [14]", "value": 122, "unit": "%"}, {"measurement": "Activity", "setting": "[15]", "value": "Non-Toxic"}, {"measurement": "half-life", "setting": "[16]", "value": 10.9, "unit": "h"}, {"measurement": "half-life", "setting": "[17]", "value": 4.39, "unit": "h"}, {"measurement": "half-life", "setting": "[18]", "value": 14.9, "unit": "h"}, {"measurement": "clearance", "setting": "[19]", "value": 15.8, "unit": "mL/min/kg"}, {"measurement": "clearance", "setting": "[20]", "value": 48.3, "unit": "mL/min/kg"}, {"measurement": "clearance", "setting": "[21]", "value": "< 12.4", "unit": "mL/min/kg"}, {"measurement": "clearance", "setting": "[22]", "value": 11.7, "unit": "mL/min/kg"}, {"measurement": "Vd", "setting": "[23]", "value": 12.1, "unit": "L/kg"}, {"measurement": "Vd", "setting": "[24]", "value": 13, "unit": "L/kg"}, {"measurement": "Vd", "setting": "[25]", "value": 17.8, "unit": "L/kg"}, {"measurement": "Vd", "setting": "[26]", "value": 12.2, "unit": "L/kg"}, {"measurement": "fraction unbound", "setting": "[27]", "value": 0.252}, {"measurement": "fraction unbound", "setting": "[28]", "value": 0.266}, {"measurement": "fraction unbound", "setting": "[29]", "value": 0.188}, {"measurement": "fraction unbound", "setting": "[30]", "value": 0.365}, {"measurement": "fraction unbound", "setting": "[31]", "value": 0.332}]}
